Columns and labels:
[1] = Solid state stability of the drug substance (storage, HPLC assay); assay type: physicochemical; details: 1 month
Procedure: The solid state stability of the drug substance was determined by storing approximately 1.0 g of the material in a glass bottle at a) 40° C./75% Relative Humidity (RH), open exposure, for 1 month and b) at 50° C., closed, for 1 month. The material was assayed by HPLC for final content and degradation products in both cases.

[2] = Solubility in water (visual, confirmed by HPLC assay of a saturated solution); assay type: physicochemical; details: thermodynamic from solid
Procedure: The visual solubility was confirmed by an HPLC assay of a saturated solution. Solubility: >100 mg/ml.

Degradation (HPLC degradation products) ([1]; 40° C./75% RH, open exposure): No significant degradation observed
HPLC assay for final content ([1]; 40° C./75% RH, open exposure): 99 % initial
Degradation (HPLC degradation products) ([1]; 50° C., closed): No significant degradation observed
HPLC assay for final content ([1]; 50° C., closed): 100 % initial
solubility [2]: > 100 mg/mL
Structure (SMILES): CCS(=O)(=O)O.CN(CCOc1ccc(CC2SC(=O)NC2=O)cc1)c1ccccn1 (centres unmarked) [Ethanesulfonate, 5-[4-[2-(N-methyl-N-(2-pyridyl)amino)ethoxy]benzyl]thiazolidine-2,4-dione ethanesulfonate]

— patent US20040044043A1, “Thiazolidinedione derivative and its use as antidiabetic” (priority 2000, published 2004)
